tested on: brain cell types; experiment: In vivo two-photon imaging of mouse cortex after topical cortical administration of fluorophores; conditions: cell type taking up the compound in vivo (Table 1)
Description: Briefly, animals are anaesthetized via intraperitoneal injections of ketamine/xylazine or via inhaled isoflurane. A region of the skull (3×3 mm) is gently removed with a high-speed drill and the underlying dura is removed. A small glass coverslip is placed over the skull to allow long term optical access for in vivo imaging. Labeling with fluorescent dyes is performed either via intravenous injections or topically application to the cortical surface for 20 min prior to glass cover placement. After recovery, in vivo images are acquired using a two-photon microscope (Bruker Technologies) equipped with a multimodal (fixed wavelength 1040 nm and tunable wavelength) InSight X3 two-photon laser (Spectra Physics) and 20× water immersion objective (Zeiss 1.0N.A.). The two-photon laser is appropriately tuned to excite particular fluorescent dyes and proteins as needed. In selected cases, following in vivo imaging, mice will be sacrificed and perfused for follow up immunohistochemistry and high-resolution confocal imaging (Leica SP8) to further confirm colocalization of dyes and cells expressing particular transporters.
One-month-old wild-type mice were anesthetized using a ketamine/xylazine solution at doses of 100 mg/kg and 10 mg/kg, respectively. The fur around the skull area was shaved, and buprenex (0.1 mg per kg) and carprofen (5 mg per kg) were administered subcutaneously. Mice were kept on a heating pad at 37° C., and anesthesia was periodically monitored. The skin was treated with povidone-iodine solution, followed by cleaning with ethanol, and eye ointment was applied. A small skin section was excised to expose the skull. Thinning of the skull was performed in a circular area, followed by delicately lifting of the remaining skull without harm to the underlying brain. Within the circular region, the dura was gently removed using fine forceps, and a 4 mm cover glass was softly pressed onto the brain surface and affixed to the skull. Fluorescent dyes were applied either through intravenous injections or topically to the cortical surface for 20 minutes before placing the glass cover. A customized head bar was attached either by adhesive (for acute imaging) or permanently implanted (using dental cement, for chronic imaging) onto the skull. Mice were imaged under a two-photon microscope (Prairie Technologies) with a mode-locked MaiTai tunable laser (Spectra Physics). Imaging was performed with a 20× water immersion objective (Zeiss, 1.0NA). Images were captured at depths up to 300 μm from the pial surface using excitation wavelengths ranging from 750 to 950 nm as previously described. Mice undergoing chronic imaging received a recovery period on a heating pad post-surgery, and buprenex (0.1 mg per kg) and carprofen (5 mg per kg) were administered for 3 days.
Batches of 10 compounds were applied through the craniotomy to the cortical surface before placing a cover glass window. No additional washings were performed, and the cover glass was placed, allowing up to 3 hours of imaging of the cortical surface with a two-photon microscope. Following imaging, the data were analyzed to identify potential patterns of cell-specific labeling. […] Positive batches underwent three additional rounds of imaging, with each batch being sequentially split, until a single compound displaying cell-type-specific labeling was identified. As these compounds were not initially purified, the labeling may have resulted from fluorescent byproducts of synthesis. Consequently, large-scale synthesis, purification and characterization (FIGS. 29A-29D) of the identified compounds were conducted. The purified compounds were subsequently retested using in vivo imaging to confirm cell type specificity.
It was reasoned that the best strategy to identify fluorophores with specific affinity to certain cell types and transport mechanisms would be by direct screening in the intact in vivo brain microenvironment. […]

Row | SMILES | Target
1 | O=S(=O)([O-])c1cc(S(=O)(=O)O)ccc1C1=c2cc3c4c(c2Oc2cc(Cl)ccc21)CCC[N+]=4CCC3 [Compound 3, 2-(12-chloro-1,2,3,5,6,7-hexahydrochromeno[2,3-f]pyrido[3,2,1-ij]quinolin-4-ium-9-yl)-5-sulfobenzenesulfonate] | Endothelial
2 | CN(C)c1ccc2c(-c3ccc(S(=O)(=O)O)cc3S(=O)(=O)[O-])c3cc(Br)ccc3[o+]c2c1 [Compound 38, 2-(2-bromo-6-(dimethylamino)xanthylium-9-yl)-5-sulfobenzenesulfonate] | Astrocyte
3 | O=S(=O)([O-])c1cc(S(=O)(=O)O)ccc1C1=c2cc3c4c(c2Oc2cc(F)ccc21)CCC[N+]=4CCC3 [Compound 2, 2-(12-fluoro-1,2,3,5,6,7-hexahydrochromeno[2,3-f]pyrido[3,2,1-ij]quinolin-4-ium-9-yl)-5-sulfobenzenesulfonate] | Endothelial
4 | O=[N+]([O-])c1ccc2c(-c3ccc(S(=O)(=O)O)cc3S(=O)(=O)[O-])c3ccc(Br)cc3[o+]c2c1 [Compound 28, 2-(3-bromo-6-nitroxanthylium-9-yl)-5-sulfobenzenesulfonate] | Endothelial
5 | CCN(CC)c1ccc2c(-c3ccc(S(=O)(=O)O)cc3S(=O)(=O)[O-])c3ccc(N(CC)CC)cc3[o+]c2c1 [Compound 46, 2-(3,6-bis(diethylamino)xanthylium-9-yl)-5-sulfobenzenesulfonate] | Endothelial
6 | O=S(=O)([O-])c1cc(S(=O)(=O)O)ccc1C1=c2cc3c4c(c2Oc2c1ccc(Cl)c2Cl)CCC[N+]=4CCC3 [Compound 23, 2-(12,13-dichloro-1,2,3,5,6,7-hexahydrochromeno[2,3-f]pyrido[3,2,1-ij]quinolin-4-ium-9-yl)-5-sulfobenzenesulfonate] | Endothelial
7 | O=S(=O)([O-])c1cc(S(=O)(=O)O)ccc1C1=c2cc3c4c(c2Oc2cc(Cl)c(Cl)cc21)CCC[N+]=4CCC3 [Compound 12, 2-(11,12-dichloro-1,2,3,5,6,7-hexahydrochromeno[2,3-f]pyrido[3,2,1-ij]quinolin-4-ium-9-yl)-5-sulfobenzenesulfonate] | Endothelial
8 | CN(C)c1ccc2c(c1)Oc1c3c4c(cc1=C2c1ccc(S(=O)(=O)O)cc1S(=O)(=O)[O-])CCC[N+]=4CCC3 [Compound 36, 2-(12-(dimethylamino)-1,2,3,5,6,7-hexahydrochromeno[2,3-f]pyrido[3,2,1-ij]quinolin-4-ium-9-yl)-5-sulfobenzenesulfonate] | Astrocyte
9 | CCN(CC)c1ccc2c(-c3ccc(S(=O)(=O)O)cc3S(=O)(=O)[O-])c3cc(Br)ccc3[o+]c2c1 [Compound 39, 2-(2-bromo-6-(diethylamino)xanthylium-9-yl)-5-sulfobenzenesulfonate] | Endothelial
10 | O=S(=O)([O-])c1cc(S(=O)(=O)O)ccc1-c1c2ccc(B(O)O)cc2[o+]c2c3c4c(cc12)CCCN4CCC3 [Compound 41, 2-(12-borono-2,3,6,7-tetrahydro-1H,5H-chromeno[2,3-f]pyrido[3,2,1-ij]quinolin-14-ium-9-yl)-5-sulfobenzenesulfonate] | Endothelial
11 | O=S(=O)([O-])c1cc(S(=O)(=O)O)ccc1C1=c2cc3c4c(c2Oc2cc(Br)c(F)cc21)CCC[N+]=4CCC3 [Compound 14, 2-(12-bromo-11-fluoro-1,2,3,5,6,7-hexahydrochromeno[2,3-f]pyrido[3,2,1-ij]quinolin-4-ium-9-yl)-5-sulfobenzenesulfonate] | Endothelial
12 | O=S(=O)([O-])c1cc(S(=O)(=O)O)ccc1C1=c2cc3c4c(c2Oc2cc(Cl)c(F)cc21)CCC[N+]=4CCC3 [Compound 11, 2-(12-chloro-11-fluoro-1,2,3,5,6,7-hexahydrochromeno[2,3-f]pyrido[3,2,1-ij]quinolin-4-ium-9-yl)-5-sulfobenzenesulfonate] | Endothelial
13 | O=S(=O)([O-])c1cc(S(=O)(=O)O)ccc1C1=c2cc3c4c(c2Oc2cc(F)c(F)cc21)CCC[N+]=4CCC3 [Compound 8, 2-(11,12-difluoro-1,2,3,5,6,7-hexahydrochromeno[2,3-f]pyrido[3,2,1-ij]quinolin-4-ium-9-yl)-5-sulfobenzenesulfonate] | Endothelial
14 | O=S(=O)([O-])c1cc(S(=O)(=O)O)ccc1C1=c2cc3c4c(c2Oc2c(Br)cc(Br)cc21)CCC[N+]=4CCC3 [Compound 7, 2-(11,13-dibromo-1,2,3,5,6,7-hexahydrochromeno[2,3-f]pyrido[3,2,1-ij]quinolin-4-ium-9-yl)-5-sulfobenzenesulfonate] | Endothelial
15 | O=S(=O)([O-])c1cc(S(=O)(=O)O)ccc1-c1c2ccc(Br)cc2[o+]c2ccc(-n3cncn3)cc12 [Compound 33, 2-(6-bromo-2-(1H-1,2,4-triazol-1-yl)xanthylium-9-yl)-5-sulfobenzenesulfonate] | Endothelial
16 | O=S(=O)([O-])c1cc(S(=O)(=O)O)ccc1C1=c2cc3c4c(c2Oc2c1cc1ccccc1c2Br)CCC[N+]=4CCC3 [Compound 45, 2-(15-bromo-1,2,3,5,6,7-hexahydrobenzo[6,7]chromeno[2,3-f]pyrido[3,2,1-ij]quinolin-4-ium-9-yl)-5-sulfobenzenesulfonate] | Endothelial
17 | CN(C)c1ccc2c(-c3ccc(S(=O)(=O)O)cc3S(=O)(=O)[O-])c3ccc(N(C)C)cc3[o+]c2c1 [Compound 43, 2-(3,6-bis(dimethylamino)xanthylium-9-yl)-5-sulfobenzenesulfonate] | Endothelial
18 | CN(C)c1ccc2c(-c3ccc(S(=O)(=O)O)cc3S(=O)(=O)[O-])c3ccc(Br)cc3[o+]c2c1 [Compound 42, 2-(3-bromo-6-(dimethylamino)xanthylium-9-yl)-5-sulfobenzenesulfonate] | Endothelial
19 | O=S(=O)([O-])c1cc(S(=O)(=O)O)ccc1C1=c2cc3c4c(c2Oc2cc(Cl)c(Br)cc21)CCC[N+]=4CCC3 [Compound 13, 2-(11-bromo-12-chloro-1,2,3,5,6,7-hexahydrochromeno[2,3-f]pyrido[3,2,1-ij]quinolin-4-ium-9-yl)-5-sulfobenzenesulfonate] | Endothelial
20 | O=S(=O)([O-])c1cc(S(=O)(=O)O)ccc1C1=c2cc3c4c(c2Oc2cc(I)ccc21)CCC[N+]=4CCC3 [Compound 4, 2-(12-iodo-1,2,3,5,6,7-hexahydrochromeno[2,3-f]pyrido[3,2,1-ij]quinolin-4-ium-9-yl)-5-sulfobenzenesulfonate] | Endothelial
21 | O=S(=O)([O-])c1cc(S(=O)(=O)O)ccc1C1=c2cc3c4c(c2Oc2cc(F)c(Br)cc21)CCC[N+]=4CCC3 [Compound 10, 2-(11-bromo-12-fluoro-1,2,3,5,6,7-hexahydrochromeno[2,3-f]pyrido[3,2,1-ij]quinolin-4-ium-9-yl)-5-sulfobenzenesulfonate] | Endothelial
22 | O=S(=O)([O-])c1cc(S(=O)(=O)O)ccc1-c1c2ccc(Br)cc2[o+]c2ccc(-n3ccnc3)cc12 [Compound 31, 2-(6-bromo-2-(1H-imidazol-1-yl)xanthylium-9-yl)-5-sulfobenzenesulfonate] | Endothelial

same assay, conditions: topical cortical administration, 50 μM, wild type mice

Row | SMILES | cellular labeling in cortex
23 | CN(C)c1ccc2c(-c3ccc(S(=O)(=O)O)cc3S(=O)(=O)[O-])c3ccc(N(C)C)cc3[o+]c2c1 [Compound 43, 2-(3,6-bis(dimethylamino)xanthylium-9-yl)-5-sulfobenzenesulfonate] | robust endothelial specific uptake
24 | CN(C)c1ccc2c(-c3ccc(S(=O)(=O)Cl)cc3S(=O)(=O)[O-])c3ccc(N(C)C)cc3[o+]c2c1 [Compound 54, 2-(3,6-bis(dimethylamino)xanthylium-9-yl)-5-(chlorosulfonyl)benzenesulfonate] | robust endothelial specific uptake

same assay, conditions: topical cortical application

Row | SMILES | endothelial cell labeling/uptake after topical application to the brain
25 | O=S(=O)([O-])c1cc(S(=O)(=O)O)ccc1C1=c2cc3c4c(c2Oc2cc(F)ccc21)CCC[N+]=4CCC3 [Compound 2, 2-(12-fluoro-1,2,3,5,6,7-hexahydrochromeno[2,3-f]pyrido[3,2,1-ij]quinolin-4-ium-9-yl)-5-sulfobenzenesulfonate] | selectively labeling endothelial cells in vivo
26 | O=S(=O)([O-])c1cc(S(=O)(=O)O)ccc1C1=c2cc3c4c(c2Oc2cc(I)ccc21)CCC[N+]=4CCC3 [Compound 4, 2-(12-iodo-1,2,3,5,6,7-hexahydrochromeno[2,3-f]pyrido[3,2,1-ij]quinolin-4-ium-9-yl)-5-sulfobenzenesulfonate] | selectively labeling endothelial cells in vivo

same assay, conditions: two-photon images of mouse cortex; route and concentration not stated

Row | SMILES | in vivo endothelial labeling/uptake
27 | CCN(CC)c1ccc2c(-c3ccc(S(=O)(=O)NCCOCCOCCOCCOCCOCCOCCOCCOCCOCCOCCOCCOCCOCCOCCOCCOCCOCCOCCOCCOCCOCCOC)cc3S(=O)(=O)[O-])c3ccc(N(CC)CC)cc3[o+]c2c1 [Compound 56] | highly specific in vivo endothelial labeling

Reference: patent US20260272895A1, “METHODS AND KITS FOR DELIVERY OF COMPOUNDS INTO CELLS” (Yale University, priority 2023, published 2026)
